In patent publication US20230100838A1 (Revolution Medicines, Inc., priority 2019, published 2023):

How the values were obtained:
Assay type in all cases: binding
[1] = target: T1, GDP-loaded K-Ras (1-169) G12D, C51S, C80L, C118S (Homo sapiens, UniProt P01116, C118S/C51S/C80L/G12D); assay: K-Ras G12D(GDP) cross-linking assay (conjugate formation, TOF mass spectrometry); conditions: Table 5; percent covalently modified K-Ras by MS; room temperature; typical compound conc. 2, 10, 25 μM, endpoints 1 and 24 h
T1 construct: GDP-loaded K-Ras (1-169) G12D, C51S, C80L, C118S
In short: (§1)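 5 μM protein (final, from 50 μM) in HEPES/NaCl/MgCl2 buffer pH 7.4 with compound typically at 2, 10 and 25 μM, room temperature, 1 and 24 h endpoints; formic acid quench. Intact-protein LC–TOF MS; percent modification is covalent adduct peak height over total K-Ras peak height.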

[2] = target: T2, GDP-loaded K-Ras (1-169) C51S, C80L, C118S (Homo sapiens, UniProt P01116, C118S/C51S/C80L); assay: K-Ras WT (GDP) cross-linking assay (conjugate formation, TOF mass spectrometry); conditions: Table 5; percent covalently modified K-Ras by MS; room temperature; typical compound conc. 2, 10, 25 μM, endpoints 1 and 24 h
T2 construct: GDP-loaded K-Ras (1-169) C51S, C80L, C118S
In short: as §1

[3] = target: K-Ras G12S (Homo sapiens, UniProt P01116, G12S); assay: K-Ras G12S cross-linking assay (comparable procedure, conjugate formation, TOF mass spectrometry); conditions: Table 5, percent covalently modified K-Ras by MS
In short: as §1

Row | Structure (SMILES) | G12D x-linking (%) [1] | WT x-linking (%) [2] | G12S x-linking (%) [3]
1 | Cc1cccc2cccc(N3CCc4c(nc(OC[C@@H]5CCCN5C)nc4N4CCC(N=C=NC5CCN(C)CC5)CC4)C3)c12 [Example 83, N-(1-(7-(8-methylnaphthalen-1-yl)-2-(((S)-1-methylpyrrolidin-2-yl)methoxy)-5,6,7,8-tetrahydropyrido[3,4-d]pyrimidin-4-yl)piperidin-4-yl)-N-(1-methylpiperidin-4-yl)methanediimine] | +++ (40 < x ≤ 100) | ++ (20 < x ≤ 100) | ++ (10 < x ≤ 100)
2 | Cc1cccc2cccc(N3CCc4c(nc(OC[C@@H]5CCCN5C)nc4N4CCC(N=C=NC5CCN(c6ccccc6)CC5)CC4)C3)c12 [Example 84, N-(1-(7-(8-methylnaphthalen-1-yl)-2-(((S)-1-methylpyrrolidin-2-yl)methoxy)-5,6,7,8-tetrahydropyrido[3,4-d]pyrimidin-4-yl)piperidin-4-yl)-N-(1-phenylpiperidin-4-yl)methanediimine] | + (0 < x ≤ 20) | + (0 < x ≤ 20) | + (0 < x ≤ 10)
3 | Cc1cccc2cccc(N3CCc4c(nc(OC[C@@H]5CCCN5C)nc4N4CCC(N=C=NCCCN5CCOCC5)CC4)C3)c12 [Example 85, N-(1-(7-(8-methylnaphthalen-1-yl)-2-(((S)-1-methylpyrrolidin-2-yl)methoxy)-5,6,7,8-tetrahydropyrido[3,4-d]pyrimidin-4-yl)piperidin-4-yl)-N-(3-morpholinopropyl)methanediimine] | +++ (40 < x ≤ 100) | ++ (20 < x ≤ 100) | ++ (10 < x ≤ 100)
4 | Cc1cccc2cccc(N3CCc4c(nc(OC[C@@H]5CCCN5C)nc4N4CCC(N=C=NCCN(C)c5ccccc5)CC4)C3)c12 [Example 89, N-methyl-N-(2-((((1-(7-(8-methylnaphthalen-1-yl)-2-(((S)-1-methylpyrrolidin-2-yl)methoxy)-5,6,7,8-tetrahydropyrido[3,4-d]pyrimidin-4-yl)piperidin-4-yl)imino)methylene)amino)ethyl)aniline] | + (0 < x ≤ 20) | + (0 < x ≤ 20) | + (0 < x ≤ 10)
5 | Cc1cccc2cccc(N3CCc4c(nc(OC[C@@H]5CCCN5C)nc4N4CCC(N=C=NCCCN(C)c5ccccc5)CC4)C3)c12 [Example 90, N-methyl-N-(3-((((1-(7-(8-methylnaphthalen-1-yl)-2-(((S)-1-methylpyrrolidin-2-yl)methoxy)-5,6,7,8-tetrahydropyrido[3,4-d]pyrimidin-4-yl)piperidin-4-yl)imino)methylene)amino)propyl)aniline] | + (0 < x ≤ 20) | + (0 < x ≤ 20) | + (0 < x ≤ 10)
6 | Cc1cccc2cccc(N3CCc4c(nc(OC[C@@H]5CCCN5C)nc4N4CCC(N=C=NCCCN(C)c5ccccn5)CC4)C3)c12 [Example 91, N-methyl-N-(3-((((1-(7-(8-methylnaphthalen-1-yl)-2-(((S)-1-methylpyrrolidin-2-yl)methoxy)-5,6,7,8-tetrahydropyrido[3,4-d]pyrimidin-4-yl)piperidin-4-yl)imino)methylene)amino)propyl)pyridin-2-amine] | ++ (20 < x ≤ 40) | + (0 < x ≤ 20) | + (0 < x ≤ 10)
7 | Cc1cccc2cccc(N3CCc4c(nc(OC[C@@H]5CCCN5C)nc4N4CCC(N=C=NCCN(C)c5ccncn5)CC4)C3)c12 [Example 92, N-methyl-N-(2-((((1-(7-(8-methylnaphthalen-1-yl)-2-(((S)-1-methylpyrrolidin-2-yl)methoxy)-5,6,7,8-tetrahydropyrido[3,4-d]pyrimidin-4-yl)piperidin-4-yl)imino)methylene)amino)ethyl)pyrimidin-4-amine] | +++ (40 < x ≤ 100) | ++ (20 < x ≤ 100) | ++ (10 < x ≤ 100)

Next, values leading:

Row | G12D x-linking (%) [1] | WT x-linking (%) [2] | G12S x-linking (%) [3] | Structure (SMILES)
8 | +++ (40 < x ≤ 100) | ++ (20 < x ≤ 100) | ++ (10 < x ≤ 100) | Cc1cccc2cccc(N3CCc4c(nc(OC[C@@H]5CCCN5C)nc4N4CCC(N=C=NCc5ccon5)CC4)C3)c12 [Example 86, N-(isoxazol-3-ylmethyl)-N-(1-(7-(8-methylnaphthalen-1-yl)-2-(((S)-1-methylpyrrolidin-2-yl)methoxy)-5,6,7,8-tetrahydropyrido[3,4-d]pyrimidin-4-yl)piperidin-4-yl)methanediimine]
9 | +++ (40 < x ≤ 100) | ++ (20 < x ≤ 100) | ++ (10 < x ≤ 100) | Cc1cccc2cccc(N3CCc4c(nc(OC[C@@H]5CCCN5C)nc4N4CCC(N=C=NCCn5ccnc5)CC4)C3)c12 [Example 87, N-(2-(1H-imidazol-1-yl)ethyl)-N-(1-(7-(8-methylnaphthalen-1-yl)-2-(((S)-1-methylpyrrolidin-2-yl)methoxy)-5,6,7,8-tetrahydropyrido[3,4-d]pyrimidin-4-yl)piperidin-4-yl)methanediimine]
10 | +++ (40 < x ≤ 100) | ++ (20 < x ≤ 100) | ++ (10 < x ≤ 100) | Cc1cccc2cccc(N3CCc4c(nc(OC[C@@H]5CCCN5C)nc4N4CCC(N=C=NCCCn5ccnc5)CC4)C3)c12 [Example 88, N-(3-(1H-imidazol-1-yl)propyl)-N-(1-(7-(8-methylnaphthalen-1-yl)-2-(((S)-1-methylpyrrolidin-2-yl)methoxy)-5,6,7,8-tetrahydropyrido[3,4-d]pyrimidin-4-yl)piperidin-4-yl)methanediimine]
11 | ++ (20 < x ≤ 40) | + (0 < x ≤ 20) | + (0 < x ≤ 10) | CSCCCN=C=NC1CCN(c2nc(OC[C@@H]3CCCN3C)nc3c2CCN(c2cccc4cccc(C)c24)C3)CC1 [Example 93, N-(1-(7-(8-methylnaphthalen-1-yl)-2-(((S)-1-methylpyrrolidin-2-yl)methoxy)-5,6,7,8-tetrahydropyrido[3,4-d]pyrimidin-4-yl)piperidin-4-yl)-N-(3-(methylthio)propyl)methanediimine]
12 | + (0 < x ≤ 20) | + (0 < x ≤ 20) | + (0 < x ≤ 10) | Cc1cccc2cccc(N3CCc4c(nc(OC[C@@H]5CCCN5C)nc4N4CCC(N=C=NCc5cccs5)CC4)C3)c12 [Example 94, N-(1-(7-(8-methylnaphthalen-1-yl)-2-(((S)-1-methylpyrrolidin-2-yl)methoxy)-5,6,7,8-tetrahydropyrido[3,4-d]pyrimidin-4-yl)piperidin-4-yl)-N-(thiophen-2-ylmethyl)methanediimine]
13 | + (0 < x ≤ 20) | + (0 < x ≤ 20) | + (0 < x ≤ 10) | Cc1cccc2cccc(N3CCc4c(nc(OC[C@@H]5CCCN5C)nc4N4CCC(N=C=NCCc5cccs5)CC4)C3)c12 [Example 95, N-(1-(7-(8-methylnaphthalen-1-yl)-2-(((S)-1-methylpyrrolidin-2-yl)methoxy)-5,6,7,8-tetrahydropyrido[3,4-d]pyrimidin-4-yl)piperidin-4-yl)-N-(2-(thiophen-2-yl)ethyl)methanediimine]
